Experimental data taken from patent publication US12678412B2, “Substituted tolans for the modulation of microbial colonization” (BioMendics, LLC, priority 2017, dated 2026).
Like-named read-outs stand apart in the source and are kept apart here.

What was measured:
[1] = tested on: wild type E. Coli; assay: Control of microbial growth, wild type E. coli; type: cell-based
[2] = tested on: E. coli WP2 uvrA pKM101; type: cell-based; conditions: without metabolic activation
Method: A series of dose range finding assays were performed with five bacterial strains, S. typhimurium TA97a, TA98, TA100, TA1535, and E. coli WP2 uvrA pKM101, with and without metabolic activation at three plates per dose. The following doses, along with positive and negative controls, were tested: 5000, 2500, 1250, 500, 250, 125, 50, 20, 10, 5, 2, 1, and 0.2 μg/plate. The plates were evaluated for toxicity (a decrease in plate counts with increasing dose and/or a visible thinning of the background lawn) and for precipitation of the test article. Metabolic activation was included in some samples by adding phenobarbital/benzoflavone-induced rat liver S9 fractions with cofactors (S9 mix). Prior to use, freshly thawed aliquots of rat liver S9 were mixed with a sterile cofactor mix. The S9 mix contains a 10% liver S9 concentration and was refrigerated or stored on ice until used. When testing with metabolic activation, the S9 mix was used in the assay tube in place of phosphate buffer.
Dosing formulations were prepared to deliver all doses in a constant volume of 0.1 mL. The highest dose was prepared from test article weighed to the nearest 0.1 mg and the remaining formulations were prepared as serial dilutions from the high dose stock formulation. Using a permanent marking pen or computer printed labels, assay plates were labeled with the project and study numbers and the date. Assay plates and tubes were labeled with a unique identifier, which was used to match the assay tubes with the properly identified minimal glucose agar plate.
The pre-incubation method was used to perform the assay. The assay mix consisted of 0.1 mL of the test article formulation or control article, 0.5 mL S9 mix or phosphate buffer, and 0.1 mL of bacterial culture. Assay tubes were incubated at 37±1° C. with gentle agitation for 20±1 minutes, then 2.0-2.5 mL top agar was added to the assay mix and the top agar/assay mix poured onto appropriately labeled minimal glucose agar plates. Once the top agar hardened, the plates were inverted and incubated at 37±1° C. for 48±2 hours. Plates were counted with the Sorcerer (v. 2.2)/Ames Study Manager (v. 1.2.4) system from Perceptive Instruments (Suffolk, UK). With this system, plate counts are automatically transferred from the plate imager (Sorcerer) to a Study Manager spreadsheet, and the data are stored in a secure manner on an Oracle database. Some plates were hand counted, e.g., if sample precipitate interferes with automatic counting or toxicity results in the formation of microcolonies, in which case, counts for these plates were entered into the spreadsheet manually. Plates were scored also with the extent of colonization by a post fix code.

[3] = tested on: MRSA USA 400 biofilms; assay: Treatment of an existing biofilm; type: cell-based, Staphylococcus aureus
Method: For the treatment of MRSA USA 400 biofilms, the same 96 well plate assay procedure was used as described in the biofilm inhibition section above. However, the MRSA USA 400 inoculum (10^8 CFU/mL) grew overnight at 37° C. in the absence of BM3103 and without shaking. After 24 h of biofilm formation, BM3103 was serially diluted across a 96 well plate from of 1 mM to 0.002 mM. The plate was incubated again overnight at 37° C. without shaking.

`COc1ccc(C#Cc2ccc(O)cc2)cc1` [BM3103, 4-hydroxy-4′-methoxytolan] was tested, and the “Effectiveness against wild type E. Coli” value [1] was “effective”, the Colony forming units/plate ([2]; 20 μg/plate) was 138.0 colony forming units/plate and the Individual colony counts ([2]; 20 μg/plate) was 138. For the same molecule, the Colony forming units/plate ([2]; 50 μg/plate) was 14.0 colony forming units/plate, the Individual colony counts ([2]; 50 μg/plate) was 14 and the Colony forming units/plate ([2]; 125 μg/plate) was 0.0 colony forming units/plate. For the same molecule, the Individual colony counts ([2]; 125 μg/plate) was 0, the Colony forming units/plate ([2]; 250 μg/plate) was 0.0 colony forming units/plate and the Individual colony counts ([2]; 250 μg/plate) was 0. For the same molecule, the “Plate postfix code (individual colony counts)” value (from here on “Plate postfix code”) ([2]; 250 μg/plate) was “A P”, the Colony forming units/plate ([2]; 500 μg/plate) was 0.0 colony forming units/plate and the Individual colony counts ([2]; 500 μg/plate) was 0. The “Plate postfix code” value ([2]; 500 μg/plate) was “A P”, the Colony forming units/plate ([2]; 1250 μg/plate) was 0.0 colony forming units/plate and the Individual colony counts ([2]; 1250 μg/plate) was 0. For the same molecule, the Colony forming units/plate ([2]; 2500 μg/plate) was 0.0 colony forming units/plate, the Individual colony counts ([2]; 2500 μg/plate) was 0 and the “Plate postfix code” value ([2]; 2500 μg/plate) was “A P”. The Colony forming units/plate ([2]; 5000 μg/plate) was 0.0 colony forming units/plate, the Individual colony counts ([2]; 5000 μg/plate) was 0 and the “Plate postfix code” value ([2]; 5000 μg/plate) was “A P”. For the same molecule, the “Reduction of established MRSA USA 400 biofilm” value (“Reduction” for short) ([3]; 0.008 mM, 24 h treatment of 24 h biofilm, FIG. 14C) was “slight reduction in the biofilm”, the “Reduction” value ([3]; 0.0625 mM or above, 24 h treatment of 24 h biofilm, FIG. 14B) was “reduced the biofilm of MRSA USA 400 significantly” and the “Reduction” value ([3]; 0.125 mM, 24 h treatment of 24 h biofilm, FIG. 14A) was “reduced the biofilm of MRSA USA 400 significantly”. For the same molecule, the “Reduction” value ([3]; concentrations below 0.002 mM, FIG. 14D) was “no reduction in the biofilm”.
